Assay results reported in publication PMC11324770, “A novel in vitro high-content imaging assay for the prediction of drug-induced lung toxicity” (Archives of Toxicology, 2024).

Key:
[1] = tested on: occludin in A549 cells; assay: High-content imaging of junctional occludin staining in A549 cells; assay type: cell-based; conditions: for area of junctional staining present at the cell membrane compared to DMSO controls: A549, 24 h, concentration-dependent, Fig. 2 shows TNFα/TGFβ as a combination
Procedure: A549 (ATCC), an alveolar epithelial cell line, and CALU-3 (ATCC), an epithelial cell line, were cultured in Dulbecco’s modified Eagle’s medium (DMEM) supplemented with 10% foetal bovine serum (FBS). 16HBE bronchial epithelial cells, kindly provided by Carl Staples (University of Southampton), were cultured in DMEM supplemented with 10% FBS and 1% non-essential amino acids). All culture media materials were purchased from Thermo Fisher Scientific. For imaging experiments, cells were seeded at 10,000 cells per well in 96-well CellCarrier imaging plates (Perkin Elmer) and cultured for 72 h to allow tight junction formation. All experiments were carried out between passages 3 and 15.
All tested compounds were synthesized internally and provided in 100% DMSO. Compounds were diluted in appropriate media to a 9-point concentration range from 100 µM down to 15 nM with a final concentration of 1% DMSO. Cigarette smoke extract (CSE) was produced by passing smoke from 5 University of Kentucky research cigarettes with filters removed through PBS with an air pump at a rate 0.07 L/min. CSE was diluted in appropriate media to a concentration range of 12% to 0.01%. TNF-α and TGF-β (Thermo Fisher Scientific) were diluted in appropriate media to a concentration range of 50 ng/ml to 0.02 ng/ml. All treatments were for 24 h and terminated by removing media and fixing with 4% paraformaldehyde (PFA). Vehicle (1% DMSO) was included for each plate and all treatments were carried out in duplicate on each plate. All experiments were independently repeated at least 3 times.
Following treatment, cells were washed twice in PBS and fixed in 4% PFA for 20 min at room temperature and permeabilized using 0.5% Triton-X for 15 min at room temperature. Cells were then blocked using 5% goat serum in PBS at room temperature for 1 h. Primary antibodies were applied as per optimized conditions based on manufacturers recommended dilutions overnight at 4 °C. Cells were washed twice in PBS prior to application of secondary antibodies at a dilution of 1:5000 for 1 h at room temperature. Cells were washed twice with PBS and subsequently stained with a mixture of Hoechst and Cell Mask Deep Red at 1:1000 in PBS. Finally, cells were washed twice in PBS and either stored at 4 °C or imaged immediately. Plates were imaged using a MolecularDevices IXC. […] Cell viability was assessed through direct counts of nuclei.
Analysis modules were written using the custom module editor of MetaXpress version 6.5.4.532. […] This thickened outline mask was then applied to the cell mask image and the area of staining was quantified. […] To quantify the amount of occludin staining at the membrane, the final step of the module overlaid the thickened membrane mask with the thickened junction mask. […]

[2] = tested on: respiratory tract; set-up: method as in printed; conditions: ref not given, cited from earlier work

Row | Compound | area of junctional staining present at the cell membrane compared to DMSO controls [1] | IC50 ([1]; area of occludin staining normalized to cell number and DMSO, 24 h, 9-point range up to 100 µM, NA = no IC50 curve could be established) | Comment (respiratory findings) ([2]; earlier non-clinical or clinical findings) | Respiratory safety risk ([2]; earlier pivotal toxicology studies in pre-clinical species or clinic)
1 | TNF-α | significant decrease |  |  | 
2 | [Cl][Cd][Cl] [Cadmium chloride] | significant decrease | 3.7 µM | Pneumonitis and fibrosis | Yes
3 | TGF-β | significant decrease |  |  | 
